Laboratory results: paper PMC7156458, “Synthetic biology based construction of biological activity-related library of fungal decalin-containing diterpenoid pyrones” (Nature Communications, 2020)

Target: Aβ42 (Homo sapiens, UniProt P05067)
Test: Th-T (thioflavin-T) assay of Aβ42 aggregation
Type: biochemical
Details: for Th-T fluorescence, mean of three wells: Aβ42 aggregation time course

Chain of Aβ42 (P05067 672-713): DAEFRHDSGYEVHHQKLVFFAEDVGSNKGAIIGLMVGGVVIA

## C=C1CCC2C(C)(CCC=C(C)C)C(O)CCC2(C)C1Cc1c(OC)oc(CO)c(C(=O)OC)c1=O (centres unmarked) [Compound 13]
Aβ42 (10 μM) ± DPPs (20 μM), room temperature
  first Th-T assay result: clearly delayed nuclei formation of Aβ42
Reading M117
  Th-T fluorescence, mean of three wells: 1.0387
Reading M118
  Th-T fluorescence, mean of three wells: 1.037
Reading M119
  Th-T fluorescence, mean of three wells: 1.04
Reading M120
  Th-T fluorescence, mean of three wells: 1.034
Reading M121
  Th-T fluorescence, mean of three wells: 1.036
Reading M122
  Th-T fluorescence, mean of three wells: 1.039
Reading M123
  Th-T fluorescence, mean of three wells: 1.034
Reading M124
  Th-T fluorescence, mean of three wells: 1.036
Reading M125
  Th-T fluorescence, mean of three wells: 1.037
Reading M126
  Th-T fluorescence, mean of three wells: 1.037
Reading M127
  Th-T fluorescence, mean of three wells: 1.0394
Reading M128
  Th-T fluorescence, mean of three wells: 1.038
Reading M129
  Th-T fluorescence, mean of three wells: 1.038
Reading M130
  Th-T fluorescence, mean of three wells: 1.033
Th-T fluorescence of Aβ42 alone began to increase after 4 h
  nucleation phase of Aβ42 delayed until: 6 h
Column suffix _10, measurement M19
  Th-T fluorescence, mean of three wells (Fig. 7a): 0.2324
Column suffix _10, measurement M20
  Th-T fluorescence, mean of three wells (Fig. 7a): 0.2323
Column suffix _10, measurement M21
  Th-T fluorescence, mean of three wells (Fig. 7a): 0.2394
Column suffix _10, measurement M22
  Th-T fluorescence, mean of three wells (Fig. 7a): 0.2441
Column suffix _10, measurement M23
  Th-T fluorescence, mean of three wells (Fig. 7a): 0.249
Column suffix _10, measurement M24
  Th-T fluorescence, mean of three wells (Fig. 7a): 0.2631
Column suffix _10, measurement M25
  Th-T fluorescence, mean of three wells (Fig. 7a): 0.2779
Column suffix _10, measurement M26
  Th-T fluorescence, mean of three wells (Fig. 7a): 0.3045
Column suffix _10, measurement M27
  Th-T fluorescence, mean of three wells (Fig. 7a): 0.3354
Column suffix _10, measurement M28
  Th-T fluorescence, mean of three wells (Fig. 7a): 0.3683
Column suffix _10, measurement M29
  Th-T fluorescence, mean of three wells (Fig. 7a): 0.4093
Column suffix _10, measurement M30
  Th-T fluorescence, mean of three wells (Fig. 7a): 0.4628
Column suffix _10, reading M1
  Th-T assay signal, mean of three wells (Fig. 7a): 0.2437
Column suffix _10, reading M2
  Th-T assay signal, mean of three wells (Fig. 7a): 0.2496
Column suffix _10, reading M3
  Th-T assay signal, mean of three wells (Fig. 7a): 0.25
Column suffix _10, reading M4
  Th-T assay signal, mean of three wells (Fig. 7a): 0.2515
Column suffix _10, reading M5
  Th-T assay signal, mean of three wells (Fig. 7a): 0.2448
Column suffix _10, reading M6
  Th-T assay signal, mean of three wells (Fig. 7a): 0.2438
Column suffix _10, reading M7
  Th-T assay signal, mean of three wells (Fig. 7a): 0.2403
Column suffix _10, reading M8
  Th-T assay signal, mean of three wells (Fig. 7a): 0.2367
Column suffix _10, reading M9
  Th-T assay signal, mean of three wells (Fig. 7a): 0.231
Column suffix _10, reading M10
  Th-T assay signal, mean of three wells (Fig. 7a): 0.233
Column suffix _10, reading M11
  Th-T assay signal, mean of three wells (Fig. 7a): 0.2291
Column suffix _10, reading M12
  Th-T assay signal, mean of three wells (Fig. 7a): 0.2292
Column suffix _10, reading M13
  Th-T assay signal, mean of three wells (Fig. 7a): 0.2301
Column suffix _10, reading M14
  Th-T assay signal, mean of three wells (Fig. 7a): 0.2289
Column suffix _10, reading M15
  Th-T assay signal, mean of three wells (Fig. 7a): 0.2274
Column suffix _10, reading M16
  Th-T assay signal, mean of three wells (Fig. 7a): 0.2305
Column suffix _10, reading M17
  Th-T assay signal, mean of three wells (Fig. 7a): 0.2352
Column suffix _10, reading M18
  Th-T assay signal, mean of three wells (Fig. 7a): 0.231
Column suffix _10, reading M85
  Fig. 7a Th-T reading, mean of three wells: 1.544
Column suffix _10, reading M86
  Fig. 7a Th-T reading, mean of three wells: 1.5365
Column suffix _10, reading M87
  Fig. 7a Th-T reading, mean of three wells: 1.543
Column suffix _10, reading M88
  Fig. 7a Th-T reading, mean of three wells: 1.544
Column suffix _10, reading M89
  Fig. 7a Th-T reading, mean of three wells: 1.563
Column suffix _10, reading M90
  Fig. 7a Th-T reading, mean of three wells: 1.554
Column suffix _10, reading M91
  Fig. 7a Th-T reading, mean of three wells: 1.5515
Column suffix _10, reading M92
  Fig. 7a Th-T reading, mean of three wells: 1.553
Column suffix _10, reading M93
  Fig. 7a Th-T reading, mean of three wells: 1.554
Column suffix _10, reading M94
  Fig. 7a Th-T reading, mean of three wells: 1.561
Column suffix _10, reading M95
  Fig. 7a Th-T reading, mean of three wells: 1.563
Column suffix _10, reading M96
  Fig. 7a Th-T reading, mean of three wells: 1.547
Column suffix _10, reading M97
  Fig. 7a Th-T reading, mean of three wells: 1.551
Column suffix _10, reading M98
  Fig. 7a Th-T reading, mean of three wells: 1.554
Column suffix _10, reading M99
  Fig. 7a Th-T reading, mean of three wells: 1.551
Column suffix _10, reading M100
  Fig. 7a Th-T reading, mean of three wells: 1.555
Column suffix _10, reading M101
  Fig. 7a Th-T reading, mean of three wells: 1.545
Column suffix _10, reading M102
  Fig. 7a Th-T reading, mean of three wells: 1.552
Column suffix _10, reading M103
  Fig. 7a Th-T reading, mean of three wells: 1.542
Column suffix _10, reading M104
  Fig. 7a Th-T reading, mean of three wells: 1.5457
Column suffix _10, reading M105
  Fig. 7a Th-T reading, mean of three wells: 1.553
Column suffix _10, reading M106
  Fig. 7a Th-T reading, mean of three wells: 1.551
Column suffix _20, measurement M19
  Th-T fluorescence, mean of three wells (Fig. 7a): 0.1811
Column suffix _20, measurement M20
  Th-T fluorescence, mean of three wells (Fig. 7a): 0.1836
Column suffix _20, measurement M21
  Th-T fluorescence, mean of three wells (Fig. 7a): 0.1846
Column suffix _20, measurement M22
  Th-T fluorescence, mean of three wells (Fig. 7a): 0.1853
Column suffix _20, measurement M23
  Th-T fluorescence, mean of three wells (Fig. 7a): 0.1827
Column suffix _20, measurement M24
  Th-T fluorescence, mean of three wells (Fig. 7a): 0.1835
Column suffix _20, measurement M25
  Th-T fluorescence, mean of three wells (Fig. 7a): 0.1855
Column suffix _20, measurement M26
  Th-T fluorescence, mean of three wells (Fig. 7a): 0.1899
Column suffix _20, measurement M27
  Th-T fluorescence, mean of three wells (Fig. 7a): 0.1923
Column suffix _20, measurement M28
  Th-T fluorescence, mean of three wells (Fig. 7a): 0.1912
Column suffix _20, measurement M29
  Th-T fluorescence, mean of three wells (Fig. 7a): 0.1931
Column suffix _20, reading M1
  Th-T assay signal, mean of three wells (Fig. 7a): 0.2486
Column suffix _20, reading M2
  Th-T assay signal, mean of three wells (Fig. 7a): 0.2414
Column suffix _20, reading M3
  Th-T assay signal, mean of three wells (Fig. 7a): 0.2279
Column suffix _20, reading M4
  Th-T assay signal, mean of three wells (Fig. 7a): 0.2173
Column suffix _20, reading M5
  Th-T assay signal, mean of three wells (Fig. 7a): 0.206
Column suffix _20, reading M6
  Th-T assay signal, mean of three wells (Fig. 7a): 0.2044
Column suffix _20, reading M7
  Th-T assay signal, mean of three wells (Fig. 7a): 0.2009
Column suffix _20, reading M8
  Th-T assay signal, mean of three wells (Fig. 7a): 0.1963
Column suffix _20, reading M9
  Th-T assay signal, mean of three wells (Fig. 7a): 0.1897
Column suffix _20, reading M10
  Th-T assay signal, mean of three wells (Fig. 7a): 0.1909
Column suffix _20, reading M11
  Th-T assay signal, mean of three wells (Fig. 7a): 0.1894
Column suffix _20, reading M12
  Th-T assay signal, mean of three wells (Fig. 7a): 0.1902
Column suffix _20, reading M13
  Th-T assay signal, mean of three wells (Fig. 7a): 0.1854
Column suffix _20, reading M14
  Th-T assay signal, mean of three wells (Fig. 7a): 0.184
Column suffix _20, reading M15
  Th-T assay signal, mean of three wells (Fig. 7a): 0.1861
Column suffix _20, reading M16
  Th-T assay signal, mean of three wells (Fig. 7a): 0.1835
Column suffix _20, reading M17
  Th-T assay signal, mean of three wells (Fig. 7a): 0.1852
Column suffix _20, reading M18
  Th-T assay signal, mean of three wells (Fig. 7a): 0.1827
Column suffix _20, reading M85
  Fig. 7a Th-T reading, mean of three wells: 1.042
Column suffix _20, reading M86
  Fig. 7a Th-T reading, mean of three wells: 1.037
Column suffix _20, reading M87
  Fig. 7a Th-T reading, mean of three wells: 1.045
Column suffix _20, reading M88
  Fig. 7a Th-T reading, mean of three wells: 1.0511
Column suffix _20, reading M89
  Fig. 7a Th-T reading, mean of three wells: 1.059
Column suffix _20, reading M90
  Fig. 7a Th-T reading, mean of three wells: 1.054
Column suffix _20, reading M91
  Fig. 7a Th-T reading, mean of three wells: 1.0453
Column suffix _20, reading M92
  Fig. 7a Th-T reading, mean of three wells: 1.043
Column suffix _20, reading M93
  Fig. 7a Th-T reading, mean of three wells: 1.047
Column suffix _20, reading M94
  Fig. 7a Th-T reading, mean of three wells: 1.054
Column suffix _20, reading M95
  Fig. 7a Th-T reading, mean of three wells: 1.054
Column suffix _20, reading M96
  Fig. 7a Th-T reading, mean of three wells: 1.04
Column suffix _20, reading M97
  Fig. 7a Th-T reading, mean of three wells: 1.041
Column suffix _20, reading M98
  Fig. 7a Th-T reading, mean of three wells: 1.046
Column suffix _20, reading M99
  Fig. 7a Th-T reading, mean of three wells: 1.051
Column suffix _20, reading M100
  Fig. 7a Th-T reading, mean of three wells: 1.05
